Reference: patent US20090299044A1 (priority 2006, published 2009)
Bridge positions count the residues as written; N and C are the ends. Square brackets hold non-standard residues; d marks the D form. Peptide text beside a SMILES is read from it. 1Nal = N[C@@H](Cc1cccc2ccccc12)C(=O)O

Experiments:
human Kv1.3 (CHO) = target: T1, human Kv1.3 (CHO) (Homo sapiens, UniProt P22001); experiment: cell-based
T1 construct: expressed in transfected cells; host or cells: CHO

human Kv1.1 (HEK293) = target: T2, human Kv1.1 (HEK293) (Homo sapiens, UniProt Q09470); experiment: cell-based
T2 construct: expressed in transfected cells; host or cells: HEK293
T2 sequence (Q09470 whole entry): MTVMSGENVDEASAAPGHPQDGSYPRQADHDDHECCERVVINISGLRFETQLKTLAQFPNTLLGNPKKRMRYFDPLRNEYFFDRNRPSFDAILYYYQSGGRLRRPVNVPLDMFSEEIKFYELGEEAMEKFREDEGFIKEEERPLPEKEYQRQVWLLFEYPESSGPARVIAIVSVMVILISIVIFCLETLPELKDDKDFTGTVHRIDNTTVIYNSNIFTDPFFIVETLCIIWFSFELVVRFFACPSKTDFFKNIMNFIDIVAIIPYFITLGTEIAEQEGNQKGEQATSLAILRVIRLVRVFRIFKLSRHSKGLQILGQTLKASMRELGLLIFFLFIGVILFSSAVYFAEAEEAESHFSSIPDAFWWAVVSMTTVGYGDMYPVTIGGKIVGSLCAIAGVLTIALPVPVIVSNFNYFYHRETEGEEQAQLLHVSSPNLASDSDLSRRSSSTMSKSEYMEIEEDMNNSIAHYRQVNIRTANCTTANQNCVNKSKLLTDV

T1 sequence (P22001 whole entry): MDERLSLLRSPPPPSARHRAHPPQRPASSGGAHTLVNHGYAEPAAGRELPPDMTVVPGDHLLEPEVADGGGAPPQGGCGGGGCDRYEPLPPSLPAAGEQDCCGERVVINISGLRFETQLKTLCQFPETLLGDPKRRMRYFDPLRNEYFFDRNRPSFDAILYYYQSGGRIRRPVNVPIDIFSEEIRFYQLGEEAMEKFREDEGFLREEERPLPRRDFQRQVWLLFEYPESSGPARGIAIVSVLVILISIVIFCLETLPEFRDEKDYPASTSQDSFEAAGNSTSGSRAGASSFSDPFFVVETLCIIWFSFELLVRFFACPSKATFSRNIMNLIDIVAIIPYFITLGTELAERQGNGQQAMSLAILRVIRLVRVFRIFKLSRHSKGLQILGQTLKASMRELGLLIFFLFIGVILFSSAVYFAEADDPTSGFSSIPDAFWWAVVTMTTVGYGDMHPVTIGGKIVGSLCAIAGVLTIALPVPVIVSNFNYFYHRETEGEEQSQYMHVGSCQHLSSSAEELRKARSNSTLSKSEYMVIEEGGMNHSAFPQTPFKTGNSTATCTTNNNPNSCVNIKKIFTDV

SMILES	IC50 (human Kv1.3 (CHO)) [nM]	IC50 (human Kv1.1 (HEK293)) [nM]
CC[C@H](C)[C@@H]1NC(=O)[C@H](CCCCN)NC(=O)[C@@H](NC(=O)[C@H](CCCCN)NC(=O)[C@@H](NC(=O)[C@H](CC(N)=O)NC(=O)[C@@H](NC(=O)[C@@H](NC(=O)[C@@H](NC(=O)CN)C(C)C)[C@@H](C)CC)[C@@H](C)CC)C(C)C)CSSC[C@@H]2NC(=O)[C@H](CCCCN)NC(=O)CNC(=O)[C@H](Cc3ccccc3)NC(=O)[C@H](CCCNC(=N)N)NC(=O)[C@H](CCSC)NC(=O)CNC(=O)[C@H](C)NC(=O)[C@H](CCCCN)NC(=O)[C@H](CCCCN)NC(=O)[C@@H]3CSSC[C@@H](C(=O)N[C@H](C(=O)N4CCC[C@H]4C(=O)N[C@@H](CCCCN)C(=O)O)[C@@H](C)O)NC(=O)[C@H](Cc4c[nH]cn4)NC(=O)[C@H](CSSC[C@H](NC(=O)[C@H](CCC(N)=O)NC(=O)[C@H](CCC(=O)O)NC(=O)[C@H](CO)NC1=O)C(=O)N[C@@H](CC(C)C)C(=O)N[C@@H](CCC(=O)O)C(=O)N1CCC[C@H]1C(=O)N3)NC(=O)[C@H](CCCCN)NC(=O)CNC(=O)[C@H](CC(N)=O)NC(=O)[C@H](CCSC)NC2=O [R12E] (H-GVIINVKCKISEQCLEPCKKAGMRFGKCMNGKCHCTPK-OH; disulfide 8-28, 14-33, 18-35)	0.0897	0.193
CC[C@H](C)[C@@H]1NC(=O)[C@H](CCCCN)NC(=O)[C@@H](NC(=O)[C@H](CCCCN)NC(=O)[C@@H](NC(=O)[C@H](CC(N)=O)NC(=O)[C@@H](NC(=O)[C@@H](NC(=O)[C@@H](NC(=O)CN)C(C)C)[C@@H](C)CC)[C@@H](C)CC)C(C)C)CSSC[C@@H]2NC(=O)[C@H](CCCCN)NC(=O)CNC(=O)[C@H](Cc3ccccc3)NC(=O)[C@H](C)NC(=O)[C@H](CCSC)NC(=O)CNC(=O)[C@H](C)NC(=O)[C@H](CCCCN)NC(=O)[C@H](CCCCN)NC(=O)[C@@H]3CSSC[C@@H](C(=O)N[C@H](C(=O)N4CCC[C@H]4C(=O)N[C@@H](CCCCN)C(=O)O)[C@@H](C)O)NC(=O)[C@H](Cc4c[nH]cn4)NC(=O)[C@H](CSSC[C@H](NC(=O)[C@H](CCC(N)=O)NC(=O)[C@H](CCCNC(=N)N)NC(=O)[C@H](CO)NC1=O)C(=O)N[C@@H](CC(C)C)C(=O)N[C@@H](CCC(=O)O)C(=O)N1CCC[C@H]1C(=O)N3)NC(=O)[C@H](CCCCN)NC(=O)CNC(=O)[C@H](CC(N)=O)NC(=O)[C@H](CCSC)NC2=O [R24A] (H-GVIINVKCKISRQCLEPCKKAGMAFGKCMNGKCHCTPK-OH; disulfide 8-28, 14-33, 18-35)	> 3	1.89
CC[C@H](C)[C@@H]1NC(=O)[C@H](CCCCN)NC(=O)[C@@H](NC(=O)[C@H](CCCCN)NC(=O)[C@@H](NC(=O)[C@H](CC(N)=O)NC(=O)[C@@H](NC(=O)[C@@H](NC(=O)[C@@H](NC(=O)CN)C(C)C)[C@@H](C)CC)[C@@H](C)CC)C(C)C)CSSC[C@@H]2NC(=O)[C@H](CCCCN)NC(=O)CNC(=O)[C@H](Cc3ccccc3)NC(=O)[C@H](Cc3cccc4ccccc34)NC(=O)[C@H](CCSC)NC(=O)CNC(=O)[C@H](C)NC(=O)[C@H](CCCCN)NC(=O)[C@H](CCCCN)NC(=O)[C@@H]3CSSC[C@@H](C(=O)N[C@H](C(=O)N4CCC[C@H]4C(=O)N[C@@H](CCCCN)C(=O)O)[C@@H](C)O)NC(=O)[C@H](Cc4c[nH]cn4)NC(=O)[C@H](CSSC[C@H](NC(=O)[C@H](CCC(N)=O)NC(=O)[C@H](CCCNC(=N)N)NC(=O)[C@H](CO)NC1=O)C(=O)N[C@@H](CC(C)C)C(=O)N[C@@H](CCC(=O)O)C(=O)N1CCC[C@H]1C(=O)N3)NC(=O)[C@H](CCCCN)NC(=O)CNC(=O)[C@H](CC(N)=O)NC(=O)[C@H](CCSC)NC2=O [R24Nal] (H-GVIINVKCKISRQCLEPCKKAGM[1Nal]FGKCMNGKCHCTPK-OH; disulfide 8-28, 14-33, 18-35)	0.0453	0.00285
